From ChEMBL document CHEMBL1201862, “PubChem BioAssay data set” (2004)
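Each compound was tested at five concentrations against cells in 96-well plates for 48 hours. GI50: concentration for 50% inhibition of growth.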 The source made the active and inactive calls. No stated cut-off is given here; in the data, active = GI50 up to about 1.1 µM and inactive = higher.

How the values were obtained:
Assay in all cases: NCI anticancer screen, dose series, 48 h
OVCAR-8 = test system: OVCAR-8
NCI-H226 = test system: NCI-H226
MDA-MB-435 = test system: MDA-MB-435
CAKI-1 = test system: CAKI-1
SK-MEL-2 = test system: SK-MEL-2
UACC-62 = test system: UACC-62
Hs-578T = test system: Hs-578T
Malme-3M = test system: Malme-3M
PC-3 = test system: PC-3
LOX IMVI = test system: LOX IMVI
M14 = test system: M14
EKVX = test system: EKVX
HL-60 = test system: HL-60
DU-145 = test system: DU-145
RXF 393 = test system: RXF 393
UACC-257 = test system: UACC-257
BT-549 = test system: BT-549
786-0 = test system: 786-0
HT-29 = test system: HT-29

| Compound | GI50 (OVCAR-8) | GI50 (NCI-H226) | GI50 (MDA-MB-435) | GI50 (CAKI-1) | GI50 (SK-MEL-2) | GI50 (UACC-62) | GI50 (Hs-578T) | GI50 (Malme-3M) | GI50 (PC-3) | GI50 (LOX IMVI) | GI50 (M14) | GI50 (EKVX) | GI50 (HL-60) | GI50 (DU-145) | GI50 (RXF 393) | GI50 (UACC-257) | GI50 (BT-549) | GI50 (786-0) | GI50 (HT-29) |
| --- | --- | --- | --- | --- | --- | --- | --- | --- | --- | --- | --- | --- | --- | --- | --- | --- | --- | --- | --- |
| N#C/C(=C(\O)C(=O)O)c1ccc(-c2cccc3ccccc23)cc1 | > 100 µM (inactive) | > 100 µM (inactive) | > 100 µM (inactive) | > 100 µM (inactive) | > 100 µM (inactive) | > 100 µM (inactive) | > 100 µM (inactive) | > 100 µM (inactive) | > 100 µM (inactive) | > 100 µM (inactive) | > 100 µM (inactive) | 59.4 µM (inactive) | 19.5 µM (inactive) | > 100 µM (inactive) | > 100 µM (inactive) | > 100 µM (inactive) | > 100 µM (inactive) | > 100 µM (inactive) | > 100 µM (inactive) |
| Cc1cc(Cc2cc(C)cc(C(C)(C)C)c2O)c(O)c(Cc2cc(C)cc(C(C)(C)C)c2O)c1 | 2.75 µM (inactive) | 3.24 µM (inactive) | 3.12 µM (inactive) | 4.08 µM (inactive) | 2.16 µM (inactive) | 1.86 µM (inactive) | 1.67 µM (inactive) | 2 µM (inactive) | 2.75 µM (inactive) | 3.1 µM (inactive) | 2.64 µM (inactive) | 2.82 µM (inactive) | 2.51 µM (inactive) | 3.4 µM (inactive) | 2.82 µM (inactive) | 2.29 µM (inactive) | 1.87 µM (inactive) | 3.15 µM (inactive) | 2.55 µM (inactive) |
| Cc1ccc(S(=O)(=O)N2CCC(C(=O)O)(c3ccccc3)CC2)cc1 | > 100 µM (inactive) | > 100 µM (inactive) | > 100 µM (inactive) | > 100 µM (inactive) | > 100 µM (inactive) | > 100 µM (inactive) | > 100 µM (inactive) | > 100 µM (inactive) | > 100 µM (inactive) | > 100 µM (inactive) | > 100 µM (inactive) | > 100 µM (inactive) | > 100 µM (inactive) | > 100 µM (inactive) | > 100 µM (inactive) | > 100 µM (inactive) | > 100 µM (inactive) | > 100 µM (inactive) | > 100 µM (inactive) |
| CN(C)CCCN=C(N)N | > 100 µM (inactive) | > 100 µM (inactive) | > 100 µM (inactive) | > 100 µM (inactive) | > 100 µM (inactive) | > 100 µM (inactive) | > 100 µM (inactive) | > 100 µM (inactive) | > 100 µM (inactive) | > 100 µM (inactive) | > 100 µM (inactive) | > 100 µM (inactive) | 85.3 µM (inactive) | > 100 µM (inactive) | > 100 µM (inactive) | > 100 µM (inactive) | > 100 µM (inactive) | > 100 µM (inactive) | > 100 µM (inactive) |
| CC(SCc1ccccc1)C(=O)O (configuration not stated) | > 100 µM (inactive) | > 100 µM (inactive) | > 100 µM (inactive) | > 100 µM (inactive) | > 100 µM (inactive) | > 100 µM (inactive) | > 100 µM (inactive) | > 100 µM (inactive) | > 100 µM (inactive) | > 100 µM (inactive) | > 100 µM (inactive) | > 100 µM (inactive) | > 100 µM (inactive) | > 100 µM (inactive) | > 100 µM (inactive) | > 100 µM (inactive) | > 100 µM (inactive) | > 100 µM (inactive) | > 100 µM (inactive) |
| C1CC2CN(CCCN3CCOCC3)C(C1)O2 (configuration not stated) | > 100 µM (inactive) | > 100 µM (inactive) | > 100 µM (inactive) | > 100 µM (inactive) | > 100 µM (inactive) | > 100 µM (inactive) | > 100 µM (inactive) | > 100 µM (inactive) | > 100 µM (inactive) | > 100 µM (inactive) | > 100 µM (inactive) | > 100 µM (inactive) | > 100 µM (inactive) | > 100 µM (inactive) | > 100 µM (inactive) | > 100 µM (inactive) | > 100 µM (inactive) | > 100 µM (inactive) | > 100 µM (inactive) |
| O=c1c2cc(S(=O)(=O)O)ccc2nc(COc2ccc(Oc3ccc(Cl)cc3Cl)cc2)n1-c1ccc(Oc2ccc(Cl)cc2)cc1Cl | 19 µM (inactive) | 19.5 µM (inactive) | 19.7 µM (inactive) | 30.8 µM (inactive) | 16.5 µM (inactive) | 17.4 µM (inactive) | 20 µM (inactive) | 28.1 µM (inactive) | 26.7 µM (inactive) | 16.4 µM (inactive) | 19.4 µM (inactive) | 17.6 µM (inactive) | 19.2 µM (inactive) | 38.3 µM (inactive) | 0.0752 µM (active) | 25.2 µM (inactive) | 17.1 µM (inactive) | 20 µM (inactive) | 18.7 µM (inactive) |
| Cn1c(N)c(/N=N/c2ccc(S(N)(=O)=O)cc2)c(=O)n(C)c1=O | > 100 µM (inactive) | > 100 µM (inactive) | > 100 µM (inactive) | > 100 µM (inactive) | > 100 µM (inactive) | 91.8 µM (inactive) | 22.3 µM (inactive) | > 100 µM (inactive) | > 100 µM (inactive) | > 100 µM (inactive) | > 100 µM (inactive) | > 100 µM (inactive) | > 100 µM (inactive) | > 100 µM (inactive) | > 100 µM (inactive) | > 100 µM (inactive) | > 100 µM (inactive) | 53.1 µM (inactive) | > 100 µM (inactive) |
| CN(C)c1ccc(/N=N/c2ccc3[nH]cnc3c2)cc1 | 38.4 µM (inactive) | 34 µM (inactive) | 19.5 µM (inactive) | 42.2 µM (inactive) | 58.7 µM (inactive) | 24.8 µM (inactive) | 34.7 µM (inactive) | 25.2 µM (inactive) | 33.1 µM (inactive) | – | 21.4 µM (inactive) | 33.5 µM (inactive) | 14.7 µM (inactive) | 27.4 µM (inactive) | 27.1 µM (inactive) | 23 µM (inactive) | 32.5 µM (inactive) | 18.2 µM (inactive) | 16.1 µM (inactive) |
| CC(C(=O)c1ccccc1)C(c1ccccc1)N1CCOCC1 (configuration not stated) | > 100 µM (inactive) | > 100 µM (inactive) | > 100 µM (inactive) | > 100 µM (inactive) | > 100 µM (inactive) | > 100 µM (inactive) | > 100 µM (inactive) | > 100 µM (inactive) | > 100 µM (inactive) | > 100 µM (inactive) | > 100 µM (inactive) | > 100 µM (inactive) | 49.1 µM (inactive) | > 100 µM (inactive) | > 100 µM (inactive) | > 100 µM (inactive) | > 100 µM (inactive) | > 100 µM (inactive) | > 100 µM (inactive) |
| CN1CCN(Cc2cc3c(nn2)-c2ccccc2C3=O)CC1 | 95.7 µM (inactive) | > 100 µM (inactive) | 23.7 µM (inactive) | > 100 µM (inactive) | > 100 µM (inactive) | 44.4 µM (inactive) | > 100 µM (inactive) | 19.1 µM (inactive) | 37.8 µM (inactive) | – | 31.2 µM (inactive) | 46.3 µM (inactive) | 21 µM (inactive) | > 100 µM (inactive) | > 100 µM (inactive) | 19.2 µM (inactive) | 53.6 µM (inactive) | 40.6 µM (inactive) | 53 µM (inactive) |
